# Source: ChEMBL document CHEMBL1137550, “New potent acetylcholinesterase inhibitors in the tetracyclic triterpene series” (J Med Chem, 2007)
# How the values were obtained:
# Acetylcholinesterase [1] = target: Acetylcholinesterase (Torpedo californica, UniProt P04058)
# Description: Inhibition of Torpedo californica AChE by Ellman's method
# Acetylcholinesterase [2] = target: T1, Acetylcholinesterase (Bos taurus, UniProt P23795); assay: Inhibition of bovine erythrocytes AChE by Ellman's method
# T1 sequence (P23795 whole entry): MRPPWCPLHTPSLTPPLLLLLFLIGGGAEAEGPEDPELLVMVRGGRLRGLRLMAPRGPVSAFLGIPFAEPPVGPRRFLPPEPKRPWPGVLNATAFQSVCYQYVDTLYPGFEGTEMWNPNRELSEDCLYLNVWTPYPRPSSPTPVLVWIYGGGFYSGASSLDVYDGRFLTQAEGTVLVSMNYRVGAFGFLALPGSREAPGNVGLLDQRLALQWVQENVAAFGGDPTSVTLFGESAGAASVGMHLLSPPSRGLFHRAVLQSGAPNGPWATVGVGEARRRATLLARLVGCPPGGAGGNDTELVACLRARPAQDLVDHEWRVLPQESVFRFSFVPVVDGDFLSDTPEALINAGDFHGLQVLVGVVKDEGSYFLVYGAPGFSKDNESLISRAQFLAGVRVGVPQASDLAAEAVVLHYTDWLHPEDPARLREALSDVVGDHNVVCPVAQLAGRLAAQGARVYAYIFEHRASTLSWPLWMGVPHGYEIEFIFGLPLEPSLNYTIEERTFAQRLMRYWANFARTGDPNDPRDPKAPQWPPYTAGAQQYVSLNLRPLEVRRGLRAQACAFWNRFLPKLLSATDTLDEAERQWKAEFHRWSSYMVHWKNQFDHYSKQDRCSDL
# Cholinesterase = Cholinesterase (Homo sapiens, UniProt P06276)
# Chain of Cholinesterase (P06276 whole entry): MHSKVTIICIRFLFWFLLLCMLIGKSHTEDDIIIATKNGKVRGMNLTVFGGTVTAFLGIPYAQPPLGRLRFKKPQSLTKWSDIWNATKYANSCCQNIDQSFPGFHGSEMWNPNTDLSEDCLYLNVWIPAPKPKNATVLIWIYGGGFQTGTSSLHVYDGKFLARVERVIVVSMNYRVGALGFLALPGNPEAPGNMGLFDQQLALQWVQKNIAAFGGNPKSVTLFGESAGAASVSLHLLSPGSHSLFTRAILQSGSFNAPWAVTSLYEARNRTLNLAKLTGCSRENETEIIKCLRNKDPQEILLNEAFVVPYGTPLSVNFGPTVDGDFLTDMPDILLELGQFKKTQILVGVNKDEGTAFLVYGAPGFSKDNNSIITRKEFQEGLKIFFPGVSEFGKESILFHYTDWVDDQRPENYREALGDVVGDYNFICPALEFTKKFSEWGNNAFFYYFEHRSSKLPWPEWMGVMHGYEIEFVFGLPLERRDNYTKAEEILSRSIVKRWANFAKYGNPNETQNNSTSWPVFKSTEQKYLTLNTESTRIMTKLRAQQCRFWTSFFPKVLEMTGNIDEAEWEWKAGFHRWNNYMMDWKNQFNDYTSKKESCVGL
# Description: Inhibition of human serum BuChE by Ellman's method
# Acetylcholinesterase [3] = target: Acetylcholinesterase (Homo sapiens, UniProt P22303)
# Chain of Acetylcholinesterase (Homo sapiens, UniProt P22303) (P22303 whole entry): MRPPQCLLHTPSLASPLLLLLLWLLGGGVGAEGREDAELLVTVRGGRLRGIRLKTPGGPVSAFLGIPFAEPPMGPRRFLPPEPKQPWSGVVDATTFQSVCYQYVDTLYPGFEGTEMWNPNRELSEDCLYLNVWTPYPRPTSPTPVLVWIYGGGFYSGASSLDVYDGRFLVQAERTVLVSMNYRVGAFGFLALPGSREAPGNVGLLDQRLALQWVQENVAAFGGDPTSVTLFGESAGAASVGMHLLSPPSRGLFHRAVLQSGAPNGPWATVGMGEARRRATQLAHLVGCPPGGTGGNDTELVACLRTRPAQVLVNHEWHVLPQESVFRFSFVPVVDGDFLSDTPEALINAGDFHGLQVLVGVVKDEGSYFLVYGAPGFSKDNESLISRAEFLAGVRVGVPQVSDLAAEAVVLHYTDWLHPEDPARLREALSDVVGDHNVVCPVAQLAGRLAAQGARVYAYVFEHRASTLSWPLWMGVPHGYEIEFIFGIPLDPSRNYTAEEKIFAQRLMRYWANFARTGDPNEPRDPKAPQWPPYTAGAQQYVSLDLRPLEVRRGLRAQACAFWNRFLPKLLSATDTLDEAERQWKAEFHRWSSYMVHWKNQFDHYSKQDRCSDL
# Description: Inhibition of human recombinant AChE by Ellman's method
# Acetylcholinesterase [4] = target: Acetylcholinesterase (Electrophorus electricus, UniProt O42275)
# Chain of Acetylcholinesterase (Electrophorus electricus, UniProt O42275) (O42275 whole entry): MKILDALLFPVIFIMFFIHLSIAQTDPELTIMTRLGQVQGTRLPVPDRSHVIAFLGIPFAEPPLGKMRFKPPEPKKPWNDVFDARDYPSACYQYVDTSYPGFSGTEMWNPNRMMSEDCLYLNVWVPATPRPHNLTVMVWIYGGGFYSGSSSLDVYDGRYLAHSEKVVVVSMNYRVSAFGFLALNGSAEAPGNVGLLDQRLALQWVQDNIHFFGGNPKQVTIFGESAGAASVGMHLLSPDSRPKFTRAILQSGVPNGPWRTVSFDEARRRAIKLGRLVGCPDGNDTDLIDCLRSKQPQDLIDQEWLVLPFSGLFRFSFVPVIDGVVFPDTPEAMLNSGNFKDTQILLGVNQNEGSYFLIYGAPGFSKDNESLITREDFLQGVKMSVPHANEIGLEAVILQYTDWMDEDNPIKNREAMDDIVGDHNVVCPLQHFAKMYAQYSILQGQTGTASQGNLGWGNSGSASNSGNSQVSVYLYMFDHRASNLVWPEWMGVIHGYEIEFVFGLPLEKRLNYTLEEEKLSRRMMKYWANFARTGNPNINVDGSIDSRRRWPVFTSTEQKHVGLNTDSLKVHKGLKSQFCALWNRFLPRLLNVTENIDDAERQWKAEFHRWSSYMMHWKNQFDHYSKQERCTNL
# Description: Inhibition of Electrophorus electricus AChE by Ellman's method
# Chain of Acetylcholinesterase (Torpedo californica, UniProt P04058) (P04058 whole entry): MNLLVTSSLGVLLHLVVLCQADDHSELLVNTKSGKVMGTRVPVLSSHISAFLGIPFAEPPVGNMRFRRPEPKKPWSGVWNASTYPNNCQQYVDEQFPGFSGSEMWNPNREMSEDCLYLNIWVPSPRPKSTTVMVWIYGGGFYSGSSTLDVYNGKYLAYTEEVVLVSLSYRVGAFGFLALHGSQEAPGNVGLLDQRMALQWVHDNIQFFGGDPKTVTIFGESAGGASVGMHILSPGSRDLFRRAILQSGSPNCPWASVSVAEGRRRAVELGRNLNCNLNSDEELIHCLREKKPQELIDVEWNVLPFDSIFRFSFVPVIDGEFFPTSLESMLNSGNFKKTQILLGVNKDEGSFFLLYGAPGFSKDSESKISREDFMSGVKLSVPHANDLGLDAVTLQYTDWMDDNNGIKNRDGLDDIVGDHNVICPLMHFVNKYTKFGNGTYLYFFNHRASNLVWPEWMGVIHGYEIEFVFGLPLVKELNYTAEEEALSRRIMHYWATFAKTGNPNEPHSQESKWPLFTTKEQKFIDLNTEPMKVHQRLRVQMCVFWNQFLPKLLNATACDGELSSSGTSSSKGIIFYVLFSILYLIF
Compound,IC50 (Acetylcholinesterase [1]) [nM],IC50 (Acetylcholinesterase [2]) [nM],IC50 (Cholinesterase) [nM],IC50 (Acetylcholinesterase [3]) [nM],IC50 (Acetylcholinesterase [4]) [nM]
CC1=N[C@H]2CC=C3C[C@H]4C(=O)C[C@]5(C)[C@@H]([C@H](C)N(C)C)[C@H](O)C[C@@]5(C)[C@@H]4CC[C@H]3[C@]2(C)CO1,2790,6120,> 10000,5240,–
CC[C@H](C)C1=N[C@H]2CC=C3C[C@H]4C(=O)C[C@]5(C)[C@@H]([C@H](C)N(C)C)[C@H](O)C[C@@]5(C)[C@@H]4CC[C@H]3[C@]2(C)CO1,237,1360,> 10000,265,–
CC[C@H](C)C1=N[C@H]2CC[C@]34C[C@]35C(=O)C[C@]3(C)[C@@H]([C@H](C)N(C)C)[C@H](O)C[C@@]3(C)[C@@H]5CC[C@H]4[C@]2(C)CN1,2,6490,–,4370,14
CC(C)C(=O)N[C@H]1CCC23CC24C(=O)C[C@]2(C)[C@@H]([C@H](C)N(C)C)[C@H](O)C[C@@]2(C)[C@@H]4CC[C@H]3[C@]1(C)CO (some centres not stated),–,–,> 10000,–,> 10000
CC[C@H](C)C1=N[C@H]2CC=C3C[C@H]4C(=O)C[C@]5(C)[C@@H]([C@H](C)N(C)C)[C@H](O)C[C@@]5(C)[C@@H]4CC[C@H]3[C@]2(C)CN1,447,7350,> 10000,3830,–
CC(C)C(=O)N[C@H]1CC=C2C[C@H]3C(=O)C[C@]4(C)[C@@H]([C@H](C)N(C)C)[C@H](O)C[C@@]4(C)[C@@H]3CC[C@H]2[C@]1(C)CO (racemic),–,–,1930,–,–
CN[C@@H](C)[C@H]1[C@H](O)C[C@@]2(C)[C@@H]3CC[C@@H]4[C@@H](CC[C@H](NC(=O)C(C)C)[C@@]4(C)CO)C[C@H]3C(=O)C[C@]12C,–,–,1440,–,110
CCC(CC)C1=N[C@H]2CC=C3C[C@H]4C(=O)C[C@]5(C)[C@@H]([C@H](C)N(C)C)[C@H](O)C[C@@]5(C)[C@@H]4CC[C@H]3[C@]2(C)CO1,–,–,1540,–,–
CC(C)C1=N[C@H]2CC[C@]34C[C@]35C(=O)C[C@]3(C)[C@@H]([C@H](C)N(C)C)[C@H](O)C[C@@]3(C)[C@@H]5CC[C@H]4[C@]2(C)CN1,2,3280,> 10000,3110,18
C[C@@H]([C@H]1[C@H](O)C[C@@]2(C)[C@@H]3CC[C@@H]4C(=CC[C@@H]5N=C(Cc6ccccc6)OC[C@]54C)C[C@H]3C(=O)C[C@]12C)N(C)C,–,–,380,–,–
CCC1=N[C@H]2CC=C3C[C@H]4C(=O)C[C@]5(C)[C@@H]([C@H](C)N(C)C)[C@H](O)C[C@@]5(C)[C@@H]4CC[C@H]3[C@]2(C)CO1,–,–,> 10000,–,–
CN[C@@H](C)[C@H]1[C@H](O)C[C@@]2(C)[C@@H]3CC[C@@H]4C(=CC[C@@H]5N=C(C(C)C)OC[C@]54C)C[C@H]3C(=O)C[C@]12C,485,2230,–,517,106
CCC(CC)C(=O)N[C@H]1CC=C2C[C@H]3C(=O)C[C@]4(C)[C@@H]([C@H](C)N(C)C)[C@H](O)C[C@@]4(C)[C@@H]3CC[C@H]2[C@]1(C)CO,–,–,> 10000,–,–
C[C@@H]([C@H]1[C@H](O)C[C@@]2(C)[C@@H]3CC[C@@H]4C(=CC[C@@H]5N=C(c6ccccc6)OC[C@]54C)C[C@H]3C(=O)C[C@]12C)N(C)C,–,–,> 10000,–,–
CCC(C)C1=N[C@H]2CC=C3C[C@H]4C(=O)C[C@]5(C)[C@@H]([C@H](C)N(C)C)[C@H](O)C[C@@]5(C)[C@@H]4CC[C@H]3[C@]2(C)CO1 (some centres not stated),–,–,> 10000,–,–
CC[C@H](C)C(=O)N[C@H]1CC=C2C[C@H]3C(=O)C[C@]4(C)[C@@H]([C@H](C)N(C)C)[C@H](O)C[C@@]4(C)[C@@H]3CC[C@H]2[C@]1(C)/C=N/Cc1ccccc1,–,–,> 10000,–,–
CC(C)C(=O)N[C@H]1CC[C@H]2C[C@H]3C(=O)C[C@]4(C)[C@@H]([C@H](C)N(C)C)[C@H](O)C[C@@]4(C)[C@@H]3CC[C@H]2[C@]1(C)CN,–,–,–,–,291
CC(=O)O[C@@H]1C[C@@]2(C)[C@@H]3CC[C@@H]4C(=CC[C@@H]5N=C(C(C)C)OC[C@]54C)C[C@H]3C(=O)C[C@]2(C)[C@H]1[C@H](C)N(C)C,–,–,–,–,380
CC(C)C1=N[C@H]2CC=C3CC4C(=O)C[C@]5(C)[C@@H]([C@H](C)N(C)C)[C@H](O)C[C@@]5(C)[C@@H]4CC[C@H]3[C@]2(C)CO1 (some centres not stated),385,756,> 1000,299,31
CC(C)[C@H]1N[C@H]2CC=C3C[C@H]4C(=O)C[C@]5(C)[C@@H]([C@H](C)N(C)C)[C@H](O)C[C@@]5(C)[C@@H]4CC[C@H]3[C@]2(C)CO1,–,–,> 10000,–,2380
CC(C)C1=N[C@H]2CC[C@H]3C=C4C(=O)C[C@]5(C)[C@@H]([C@H](C)N(C)C)[C@H](O)C[C@@]5(C)[C@@H]4CC[C@H]3[C@]2(C)CO1,–,–,1450,–,110
CC[C@H](C)C(=O)N[C@H]1CC=C2C[C@H]3C(=O)C[C@]4(C)[C@@H]([C@H](C)N(C)C)[C@H](O)C[C@@]4(C)[C@@H]3CC[C@H]2[C@]1(C)CO,–,–,> 10000,–,105
C[C@@H]([C@H]1[C@H](O)C[C@@]2(C)[C@@H]3CC[C@@H]4C(=CC[C@@H]5N=C(C(C)(C)C)OC[C@]54C)C[C@H]3C(=O)C[C@]12C)N(C)C,372,1180,> 10000,351,–
CC(C)[C@H]1N[C@H]2CC[C@]34C[C@]35C(=O)C[C@]3(C)[C@@H]([C@H](C)N(C)C)C(O)C[C@@]3(C)[C@@H]5CC[C@H]4[C@]2(C)CO1 (some centres not stated),–,–,> 10000,–,820
CC(C)C1=N[C@H]2CC=C3C[C@H]4C(=O)C[C@]5(C)[C@@H]([C@H](C)N(C)C)[C@H](OC(=O)C(C)(C)C)C[C@@]5(C)[C@@H]4CC[C@H]3[C@]2(C)CO1,724,1380,–,839,110
CC[C@H](C)C(=O)N[C@H]1CC[C@H]2C[C@H]3C(=O)C[C@]4(C)[C@@H]([C@H](C)N(C)C)[C@H](O)C[C@@]4(C)[C@@H]3CC[C@H]2[C@]1(C)CN,–,–,–,–,1340
CC[C@H](C)C(=O)N[C@H]1CC=C2C[C@H]3C(=O)C[C@]4(C)[C@@H]([C@H](C)N(C)C)[C@H](O)C[C@@]4(C)[C@@H]3CC[C@H]2[C@]1(C)CN,–,–,> 10000,–,–
